Measurements taken from ChEMBL document CHEMBL1201862, “PubChem BioAssay data set” (2004).
Each block holds one compound with its values, some of them ahead of it. The source made the active and inactive calls.

Experiments:
Ion channel NompC = Ion channel NompC (Danio rerio, UniProt Q7T1G6); assay: Fluorescence counterscreen assay for TRPML3 agonists: dose response cell-based high-throughput screening assay to identify agonists of the transient receptor potential channel N1 (TRPN1). [Related pubchem assays: 1526, 1424, 1448 ]; format: functional
Mucolipin-3 = Mucolipin-3 (Homo sapiens, UniProt Q8TDD5); assay: Dose response cell-based high-throughput screening assay for agonists of the transient receptor potential channel ML3 (TRPML3). [Related pubchem assays: 1526, 1424, 1448 ]; format: functional
[1] = Fluorescence-based cell-based high throughput dose response assay for inhibitors of the interaction of nucleotide-binding oligomerization domain containing 2 (NOD2) and the receptor-interacting serine-threonine kinase 2 (RIPK2).; format: functional, Homo sapiens; details: Homo sapiens
CHO = assay: cytotoxicity in TLR9-MyD88 CHO cells, dose response, cytotoxicity control for TLR9-MyD88 binding inhibitor project, cell-based, luminescence (AID 588339); format: functional, hamster; details: Cricetulus griseus;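 further: CHO cells stably coexpressing TLR9 and MyD88 fusions from primary screen; compound exposure lasted 48 hours before viability readout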
Paired box protein Pax-8 = Paired box protein Pax-8 (Homo sapiens, UniProt Q06710); assay: inhibitors of PAX8-driven TPO luciferase reporter, dose response, RMG-I cells, cherry-pick (AID 687027); format: functional, cell-based;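 further: luciferase reporter driven by Pax8 target thyroperoxidase promoter measured by SteadyGlo luminescence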
[2] = cytotoxicity toward NIH3T3 fibroblasts, dose response, counter-screen, cell-based, ATP luminescence, mouse fibroblasts (AID 2010); format: functional;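 further: cells exposed to compound for about 90 hours before reading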
[3] = inhibitors of intracellular T. cruzi replication, confirmation, NIH3T3 host cells, beta-gal luminescence (AID 2044); format: functional, cell-based;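 further: intracellular parasites grown in NIH/3T3 mouse fibroblasts as host cells; luminescent beta-galactosidase reporter signal from transgenic T. cruzi replicating inside host cells; inhibitors lower the luminescence signal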
[4] = target: Beta-2 adrenergic receptor (Homo sapiens, UniProt P07550); assay: beta2AR agonists driving receptor internalization, dose response, cell-based, FAP fluorogen, flow cytometry, cherry pick 1 (AID 588763); format: functional
[5] = target: T1, Mannose-6-phosphate isomerase (Homo sapiens, UniProt P34949); assay: human PMI inhibitors, high substrate, primary screen, biochemical, fluorescence intensity, high mannose 6-phosphate (AID 1220)
T1 sequence (P34949 whole entry): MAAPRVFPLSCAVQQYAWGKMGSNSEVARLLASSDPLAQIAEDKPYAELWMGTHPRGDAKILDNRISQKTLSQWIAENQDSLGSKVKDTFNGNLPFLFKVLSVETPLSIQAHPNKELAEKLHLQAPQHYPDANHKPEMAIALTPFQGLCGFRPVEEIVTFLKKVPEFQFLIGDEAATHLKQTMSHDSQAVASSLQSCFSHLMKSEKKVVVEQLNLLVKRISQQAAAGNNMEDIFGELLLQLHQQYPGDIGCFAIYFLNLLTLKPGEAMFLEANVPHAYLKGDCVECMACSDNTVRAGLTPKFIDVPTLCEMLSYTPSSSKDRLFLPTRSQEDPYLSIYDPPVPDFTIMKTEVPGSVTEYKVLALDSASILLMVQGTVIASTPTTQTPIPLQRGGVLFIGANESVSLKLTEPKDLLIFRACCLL

Insulin-degrading enzyme [6] = target: T2, Insulin-degrading enzyme (Homo sapiens, UniProt P14735); assay: activators of recombinant IDE enzyme, dose response, counter-screen for IDE activator project, biochemical, fluorescence polarization (AID 588681)
T2 sequence (P14735 whole entry): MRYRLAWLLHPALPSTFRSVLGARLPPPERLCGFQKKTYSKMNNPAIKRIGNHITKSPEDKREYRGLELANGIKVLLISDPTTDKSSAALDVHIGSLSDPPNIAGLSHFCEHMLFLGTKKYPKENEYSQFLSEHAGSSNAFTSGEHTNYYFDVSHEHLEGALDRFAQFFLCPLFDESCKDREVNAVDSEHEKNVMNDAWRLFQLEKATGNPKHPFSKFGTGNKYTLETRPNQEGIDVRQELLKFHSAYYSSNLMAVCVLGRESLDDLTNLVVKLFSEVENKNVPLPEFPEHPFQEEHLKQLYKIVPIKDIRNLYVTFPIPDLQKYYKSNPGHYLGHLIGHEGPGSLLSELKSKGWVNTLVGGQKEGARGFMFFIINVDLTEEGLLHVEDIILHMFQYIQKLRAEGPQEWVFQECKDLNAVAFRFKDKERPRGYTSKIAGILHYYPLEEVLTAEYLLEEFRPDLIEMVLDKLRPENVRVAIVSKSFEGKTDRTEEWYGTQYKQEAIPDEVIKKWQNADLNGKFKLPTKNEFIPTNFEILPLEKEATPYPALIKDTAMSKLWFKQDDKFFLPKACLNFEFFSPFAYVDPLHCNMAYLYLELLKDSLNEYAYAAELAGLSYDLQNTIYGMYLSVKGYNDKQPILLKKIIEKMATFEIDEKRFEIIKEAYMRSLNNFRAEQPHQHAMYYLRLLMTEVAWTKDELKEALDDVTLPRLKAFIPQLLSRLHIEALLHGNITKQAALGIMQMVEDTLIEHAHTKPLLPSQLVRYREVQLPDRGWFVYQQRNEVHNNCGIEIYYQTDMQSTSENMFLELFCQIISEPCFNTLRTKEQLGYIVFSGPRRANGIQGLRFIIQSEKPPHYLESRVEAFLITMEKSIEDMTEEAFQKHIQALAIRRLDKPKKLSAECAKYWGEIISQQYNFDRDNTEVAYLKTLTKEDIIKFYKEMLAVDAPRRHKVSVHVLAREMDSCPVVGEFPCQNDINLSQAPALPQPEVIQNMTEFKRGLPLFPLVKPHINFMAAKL

HEK293 [7] = assay: optical interference in Abeta FP readout, dose response, artefact control for IDE activator project, biochemical, fluorescence polarization (AID 588442); format: functional, cell-based; details: Homo sapiens
Insulin-degrading enzyme [8] = target: T2, Insulin-degrading enzyme; assay: activators of endogenous IDE in HEK cells, dose response, cell-based, fluorescence polarization (AID 588439); format: functional
HEK293 [9] = assay: HEK cell cytotoxicity by LDH release, dose response, cytotoxicity control for IDE activator project, fluorescence, HEK cells (AID 588440); format: functional, cell-based; details: Homo sapiens;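 further: cytotoxicity by LDH release measuring loss of membrane integrity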

Chain of Mucolipin-3 (Q8TDD5 whole entry, the tested form may be a part): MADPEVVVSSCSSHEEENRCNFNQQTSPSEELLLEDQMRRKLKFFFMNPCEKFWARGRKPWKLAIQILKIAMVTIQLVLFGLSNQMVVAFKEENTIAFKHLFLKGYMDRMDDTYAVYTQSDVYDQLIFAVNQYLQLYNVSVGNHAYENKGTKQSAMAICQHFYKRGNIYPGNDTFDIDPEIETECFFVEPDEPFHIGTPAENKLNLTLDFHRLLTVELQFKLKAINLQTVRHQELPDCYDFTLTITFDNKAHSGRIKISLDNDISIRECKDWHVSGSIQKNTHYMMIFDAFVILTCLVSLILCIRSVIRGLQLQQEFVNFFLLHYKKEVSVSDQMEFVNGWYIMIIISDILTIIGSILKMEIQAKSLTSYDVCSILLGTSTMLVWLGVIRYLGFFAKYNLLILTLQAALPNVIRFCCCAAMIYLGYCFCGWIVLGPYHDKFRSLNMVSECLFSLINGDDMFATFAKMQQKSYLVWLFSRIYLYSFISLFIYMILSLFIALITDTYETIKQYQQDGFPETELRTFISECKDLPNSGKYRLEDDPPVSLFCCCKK
Chain of Paired box protein Pax-8 (Q06710 whole entry): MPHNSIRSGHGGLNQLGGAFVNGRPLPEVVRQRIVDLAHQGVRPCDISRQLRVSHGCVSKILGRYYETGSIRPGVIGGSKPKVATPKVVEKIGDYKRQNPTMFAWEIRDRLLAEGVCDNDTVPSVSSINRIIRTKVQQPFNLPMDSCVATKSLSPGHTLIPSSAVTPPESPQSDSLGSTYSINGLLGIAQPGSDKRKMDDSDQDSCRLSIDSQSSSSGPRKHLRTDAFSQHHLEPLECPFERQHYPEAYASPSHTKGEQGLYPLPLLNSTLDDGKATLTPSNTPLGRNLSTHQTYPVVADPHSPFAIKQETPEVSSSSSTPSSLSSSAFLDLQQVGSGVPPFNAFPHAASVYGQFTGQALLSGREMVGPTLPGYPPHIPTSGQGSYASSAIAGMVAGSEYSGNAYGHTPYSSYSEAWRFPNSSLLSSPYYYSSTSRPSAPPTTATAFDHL
Chain of Ion channel NompC (Q7T1G6 whole entry): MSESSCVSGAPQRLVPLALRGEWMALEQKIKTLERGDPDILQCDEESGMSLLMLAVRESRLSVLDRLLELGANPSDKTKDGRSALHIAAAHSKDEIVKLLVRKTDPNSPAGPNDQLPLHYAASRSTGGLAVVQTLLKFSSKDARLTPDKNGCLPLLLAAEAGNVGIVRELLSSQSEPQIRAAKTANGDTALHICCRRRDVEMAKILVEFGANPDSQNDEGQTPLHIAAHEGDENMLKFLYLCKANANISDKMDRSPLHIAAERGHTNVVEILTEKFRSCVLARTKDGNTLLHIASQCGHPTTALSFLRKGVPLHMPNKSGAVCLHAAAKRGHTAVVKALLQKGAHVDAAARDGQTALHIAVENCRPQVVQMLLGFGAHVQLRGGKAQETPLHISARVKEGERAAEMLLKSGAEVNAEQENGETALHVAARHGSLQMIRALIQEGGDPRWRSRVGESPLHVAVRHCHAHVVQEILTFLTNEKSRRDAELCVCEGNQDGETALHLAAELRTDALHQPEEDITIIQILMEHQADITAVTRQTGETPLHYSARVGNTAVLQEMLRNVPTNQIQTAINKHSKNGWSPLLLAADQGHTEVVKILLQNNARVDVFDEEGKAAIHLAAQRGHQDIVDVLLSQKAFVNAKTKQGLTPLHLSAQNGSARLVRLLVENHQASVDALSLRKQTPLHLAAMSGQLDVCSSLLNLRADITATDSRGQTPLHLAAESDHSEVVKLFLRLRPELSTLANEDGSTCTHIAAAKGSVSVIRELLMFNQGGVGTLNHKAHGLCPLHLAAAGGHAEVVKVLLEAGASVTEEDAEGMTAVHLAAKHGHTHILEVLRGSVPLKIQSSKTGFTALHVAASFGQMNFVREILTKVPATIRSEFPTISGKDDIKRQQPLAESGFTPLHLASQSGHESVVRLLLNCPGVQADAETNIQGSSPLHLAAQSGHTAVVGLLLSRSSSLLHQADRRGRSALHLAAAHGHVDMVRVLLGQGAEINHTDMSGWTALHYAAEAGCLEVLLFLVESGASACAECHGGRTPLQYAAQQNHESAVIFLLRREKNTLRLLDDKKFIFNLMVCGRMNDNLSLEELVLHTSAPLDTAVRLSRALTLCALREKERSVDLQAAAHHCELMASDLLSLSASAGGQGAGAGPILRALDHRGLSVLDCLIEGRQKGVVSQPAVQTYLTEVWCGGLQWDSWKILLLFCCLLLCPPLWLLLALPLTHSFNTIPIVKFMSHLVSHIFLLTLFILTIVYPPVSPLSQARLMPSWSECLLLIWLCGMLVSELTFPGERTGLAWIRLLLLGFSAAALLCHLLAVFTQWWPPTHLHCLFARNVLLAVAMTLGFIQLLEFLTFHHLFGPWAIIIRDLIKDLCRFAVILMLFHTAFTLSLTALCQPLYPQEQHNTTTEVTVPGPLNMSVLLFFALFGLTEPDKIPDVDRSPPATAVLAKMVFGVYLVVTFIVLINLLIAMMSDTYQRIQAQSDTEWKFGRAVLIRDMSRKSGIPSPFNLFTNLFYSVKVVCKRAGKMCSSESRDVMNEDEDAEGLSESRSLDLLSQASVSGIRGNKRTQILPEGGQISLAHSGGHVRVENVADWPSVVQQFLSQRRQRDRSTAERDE
Chain of Beta-2 adrenergic receptor (P07550 whole entry): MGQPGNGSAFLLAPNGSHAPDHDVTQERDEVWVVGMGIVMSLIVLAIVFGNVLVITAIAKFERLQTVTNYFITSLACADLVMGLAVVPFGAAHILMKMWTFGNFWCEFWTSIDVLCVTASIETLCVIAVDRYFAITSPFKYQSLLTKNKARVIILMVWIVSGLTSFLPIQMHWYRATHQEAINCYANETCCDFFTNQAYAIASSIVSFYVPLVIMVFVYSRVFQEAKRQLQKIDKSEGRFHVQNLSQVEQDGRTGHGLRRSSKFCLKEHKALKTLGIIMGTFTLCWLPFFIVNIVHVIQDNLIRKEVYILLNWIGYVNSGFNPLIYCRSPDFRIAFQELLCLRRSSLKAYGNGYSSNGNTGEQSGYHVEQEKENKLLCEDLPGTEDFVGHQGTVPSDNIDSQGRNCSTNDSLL

SMILES: O=c1c(Cl)c(Cl)cnn1Cc1nnc(-c2ccccc2Br)o1
EC50 (Ion channel NompC): 11.3 µM (not active) | EC50 (Mucolipin-3): 3.15 µM (active) | IC50 [1]: 7.65 µM (active) | IC50 (CHO): 1.81 µM (active) | AC50 (Paired box protein Pax-8): 7.63 µM (active) | EC50 [2]: 2.51 µM (active) | EC50 [3]: 2.03 µM (active)

EC50 [4]: 1.26 µM (active)
SMILES: CN(Cc1cccs1)c1nc(-c2cccnc2)nc2ccccc12

SMILES: O=c1oc2cc(O)ccc2cc1-c1nc2c(s1)CCc1ccccc1-2
IC50 [5]: > 50 µM (not active) | EC50 (Insulin-degrading enzyme [6]): > 54.7 µM (inactive) | EC50 (HEK293 [7]): 4.6 µM (active) | EC50 (Insulin-degrading enzyme [8]): > 54.7 µM (inactive) | IC50 (HEK293 [9]): > 89.2 µM (inactive)
